Laboratory results reported in patent publication US5519022A, “α, α dialkylbenzyl derivatives” (Imperial Chemical Industries Plc, priority 1991, dated 1996).

Molecular target: T1, 5-LO (Homo sapiens, UniProt P09917)
T1 construct: effects of a test compound against 5-LO and also cyclooxygenase in the presence of blood cells and proteins; endogenous in cells; host or cells: blood cells in heparinised human blood challenged with calcium ionophore A23187
T1 sequence (P09917 1-674): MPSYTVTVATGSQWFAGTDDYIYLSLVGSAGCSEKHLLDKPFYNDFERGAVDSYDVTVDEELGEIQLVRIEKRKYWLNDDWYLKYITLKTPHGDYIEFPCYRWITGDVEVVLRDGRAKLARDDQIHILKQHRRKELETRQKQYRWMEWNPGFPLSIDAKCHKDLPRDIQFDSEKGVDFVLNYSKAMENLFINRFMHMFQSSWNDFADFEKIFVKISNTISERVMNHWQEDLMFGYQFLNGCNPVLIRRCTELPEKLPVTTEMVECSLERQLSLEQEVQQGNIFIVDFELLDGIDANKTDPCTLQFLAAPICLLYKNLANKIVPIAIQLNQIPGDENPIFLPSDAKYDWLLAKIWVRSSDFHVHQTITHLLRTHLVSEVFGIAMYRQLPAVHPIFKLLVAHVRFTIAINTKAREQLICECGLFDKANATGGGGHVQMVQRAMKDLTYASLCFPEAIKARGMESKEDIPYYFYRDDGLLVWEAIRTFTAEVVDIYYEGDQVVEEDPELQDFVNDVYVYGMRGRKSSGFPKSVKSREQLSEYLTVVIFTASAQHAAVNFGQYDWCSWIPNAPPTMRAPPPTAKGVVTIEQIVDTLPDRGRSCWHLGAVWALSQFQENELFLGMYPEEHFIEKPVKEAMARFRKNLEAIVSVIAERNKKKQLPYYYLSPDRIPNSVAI
Assay: Test a) in vitro inhibition of LTB4 production in A23187-challenged heparinised human blood (radioimmunoassay)
Assay type: cell-based
Conditions: calcium ionophore A23187 challenge
Experimental: a) An in vitro assay system involving incubating a test compound with heparinised human blood, prior to challenge with the calcium ionophore A23187 and then indirectly measuring the inhibitory effects on 5-LO by assaying the amount of LTB4 using specific radioimmunoassays described by Carey and Forder (F. Carey and R. A. Forder, Prostaglandins, Leukotrienes Med., 1986, 22, 57; Prostaglandins, 198, 28, 666; Brit. J. Pharmacol. 1985, 84, 34P) which involve the use of a protein-LTB4 conjugate produced using the procedure of Young et alia (Prostaglandins, 1983, 26(4), 605-613). The effects of a test compound on the enzyme cyclooxygenase (which is involved in the alternative metabolic pathway for arachidonic acid and gives rise to prostaglandins, thromboxanes and related metabolites) may be measured at the same time using the specific radioimmunoassay for thromboxane B2 (TxB2) described by Carey and Forder (see above). This test provides an indication of the effects of a test compound against 5-LO and also cyclooxygenase in the presence of blood cells and proteins. It permits the selectivity of the inhibitory effect on 5-LO or cyclooxygenase to be assessed.

IC50 | Compound
50 nM | C=CCC(C#N)(CC=C)c1cccc(OCc2ccc3c(ccc(=O)n3C)c2)c1 [2,2-diallyl-2-[3-(1-methyl-2-oxo-1,2-dihydroquinolin-6-ylmethoxy)phenyl]acetonitrile]
500 nM | CCC(C#N)(CC)c1cccc(OCc2ccc3c(ccc(=O)n3C)c2)c1 [2-ethyl-2-[3-(1-methyl-2-oxo-1,2-dihydroquinolin-6-ylmethoxy)phenyl]butyronitrile]
80 nM | CCC(C)(C#N)c1cccc(OCc2ccc3c(ccc(=O)n3C)c2)c1 (stereo not shown) [2-methyl-2-[3-(1-methyl-2-oxo-1,2-dihydroquinolin-6-ylmethoxy)phenyl]butyronitrile]
150 nM | CCC(CC)(C(C)=O)c1cccc(OCc2ccc3c(ccc(=O)n3C)c2)c1 [3-ethyl-3-[3-(1-methyl-2-oxo-1,2-dihydroquinolin-6-ylmethoxy)phenyl]pentan-2-one]
